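Assay format: 96-well plates, 48-hour exposure. GI50 = concentration required for 50% inhibition of growth.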 The source made the active and inactive calls. No stated cut-off is given here; in the data, active = GI50 up to about 1.1 µM and inactive = higher.
Tests used:
Test in all cases: growth of human tumour cells (NCI), 48 h
OVCAR-5 = test system: OVCAR-5
A549 = test system: A549
NCI-H460 = test system: NCI-H460
RXF 393 = test system: RXF 393
SF-539 = test system: SF-539
KM12 = test system: KM12
SK-OV-3 = test system: SK-OV-3
HOP-18 = test system: HOP-18
DLD-1 = test system: DLD-1
LOX IMVI = test system: LOX IMVI
SW-620 = test system: SW-620
UACC-257 = test system: UACC-257
M19-MEL = test system: M19-MEL
NCI-H522 = test system: NCI-H522
CAKI-1 = test system: CAKI-1
HT-29 = test system: HT-29
U-251 = test system: U-251
SNB-78 = test system: SNB-78
LXFL 529 = test system: LXFL 529
ACHN = test system: ACHN
MOLT-4 = test system: MOLT-4
HOP-92 = test system: HOP-92
TK-10 = test system: TK-10
SK-MEL-5 = test system: SK-MEL-5
CCRF-CEM = test system: CCRF-CEM
RPMI-8226 = test system: RPMI-8226
OVCAR-4 = test system: OVCAR-4
EKVX = test system: EKVX
UACC-62 = test system: UACC-62
Malme-3M = test system: Malme-3M
SF-268 = test system: SF-268
SN12C = test system: SN12C
HL-60 = test system: HL-60
SNB-19 = test system: SNB-19
IGROV-1 = test system: IGROV-1
OVCAR-3 = test system: OVCAR-3
DMS-114 = test system: DMS-114
786-0 = test system: 786-0
SK-MEL-28 = test system: SK-MEL-28
COLO 205 = test system: COLO 205
HCC 2998 = test system: HCC 2998
HCT-116 = test system: HCT-116
SF-295 = test system: SF-295
DMS-273 = test system: DMS-273
M14 = test system: M14
SNB-75 = test system: SNB-75
NCI-H226 = test system: NCI-H226
OVCAR-8 = test system: OVCAR-8
A498 = test system: A498
HCT-15 = test system: HCT-15
SR = test system: SR
KM-20L2 = test system: KM-20L2
HOP-62 = test system: HOP-62
NCI-H23 = test system: NCI-H23
K562 = test system: K562
UO-31 = test system: UO-31
SK-MEL-2 = test system: SK-MEL-2
XF498 = test system: XF498

## C[C@]12CCC(=O)C(OC(=O)c3ccc([N+](=O)[O-])cc3)=C1CCC2=O
OVCAR-5
  GI50: > 100 µM (inactive)
A549
  GI50: > 100 µM (inactive)
NCI-H460
  GI50: > 100 µM (inactive)
RXF 393
  GI50: > 100 µM (inactive)
SF-539
  GI50: > 100 µM (inactive)
KM12
  GI50: > 100 µM (inactive)
SK-OV-3
  GI50: > 100 µM (inactive)
HOP-18
  GI50: > 100 µM (inactive)
DLD-1
  GI50: > 100 µM (inactive)
LOX IMVI
  GI50: > 100 µM (inactive)
SW-620
  GI50: > 100 µM (inactive)
UACC-257
  GI50: > 100 µM (inactive)
M19-MEL
  GI50: > 100 µM (inactive)
NCI-H522
  GI50: > 100 µM (inactive)
CAKI-1
  GI50: > 100 µM (inactive)
HT-29
  GI50: > 100 µM (inactive)
U-251
  GI50: > 100 µM (inactive)
SNB-78
  GI50: > 100 µM (inactive)
LXFL 529
  GI50: > 100 µM (inactive)
ACHN
  GI50: > 100 µM (inactive)
MOLT-4
  GI50: > 100 µM (inactive)
HOP-92
  GI50: > 100 µM (inactive)
TK-10
  GI50: > 100 µM (inactive)
SK-MEL-5
  GI50: > 100 µM (inactive)
CCRF-CEM
  GI50: > 100 µM (inactive)
RPMI-8226
  GI50: > 100 µM (inactive)
OVCAR-4
  GI50: > 100 µM (inactive)
EKVX
  GI50: > 100 µM (inactive)
UACC-62
  GI50: > 100 µM (inactive)
Malme-3M
  GI50: > 100 µM (inactive)
SF-268
  GI50: > 100 µM (inactive)
SN12C
  GI50: > 100 µM (inactive)
HL-60
  GI50: > 100 µM (inactive)
SNB-19
  GI50: > 100 µM (inactive)
IGROV-1
  GI50: > 100 µM (inactive)
OVCAR-3
  GI50: > 100 µM (inactive)
DMS-114
  GI50: > 100 µM (inactive)
786-0
  GI50: > 100 µM (inactive)
SK-MEL-28
  GI50: > 100 µM (inactive)
COLO 205
  GI50: 98.6 µM (inactive)
HCC 2998
  GI50: > 100 µM (inactive)
HCT-116
  GI50: > 100 µM (inactive)
SF-295
  GI50: > 100 µM (inactive)
DMS-273
  GI50: > 100 µM (inactive)
M14
  GI50: > 100 µM (inactive)
SNB-75
  GI50: > 100 µM (inactive)
NCI-H226
  GI50: 95.5 µM (inactive)
OVCAR-8
  GI50: > 100 µM (inactive)
A498
  GI50: > 100 µM (inactive)
HCT-15
  GI50: > 100 µM
SR
  GI50: > 100 µM (inactive)
KM-20L2
  GI50: > 100 µM (inactive)
HOP-62
  GI50: > 100 µM (inactive)

## O=C(c1cccs1)N(C(=S)N1CCN(c2ccccc2)CC1)C1CCCCC1
OVCAR-5
  GI50: > 100 µM (inactive)
A549
  GI50: > 100 µM (inactive)
NCI-H460
  GI50: > 100 µM (inactive)
RXF 393
  GI50: > 100 µM (inactive)
SF-539
  GI50: > 100 µM (inactive)
KM12
  GI50: > 100 µM (inactive)
SK-OV-3
  GI50: > 100 µM (inactive)
HOP-18
  GI50: > 100 µM (inactive)
DLD-1
  GI50: > 100 µM (inactive)
LOX IMVI
  GI50: > 100 µM (inactive)
SW-620
  GI50: > 100 µM (inactive)
UACC-257
  GI50: > 100 µM (inactive)
M19-MEL
  GI50: > 100 µM (inactive)
NCI-H522
  GI50: > 100 µM (inactive)
CAKI-1
  GI50: > 100 µM (inactive)
HT-29
  GI50: > 100 µM (inactive)
U-251
  GI50: > 100 µM (inactive)
SNB-78
  GI50: > 100 µM (inactive)
LXFL 529
  GI50: > 100 µM (inactive)
ACHN
  GI50: > 100 µM (inactive)
MOLT-4
  GI50: > 100 µM (inactive)
HOP-92
  GI50: > 100 µM (inactive)
NCI-H23
  GI50: > 100 µM (inactive)
TK-10
  GI50: > 100 µM (inactive)
K562
  GI50: > 100 µM (inactive)
SK-MEL-5
  GI50: > 100 µM (inactive)
CCRF-CEM
  GI50: > 100 µM (inactive)
RPMI-8226
  GI50: > 100 µM (inactive)
OVCAR-4
  GI50: > 100 µM (inactive)
UACC-62
  GI50: > 100 µM (inactive)
Malme-3M
  GI50: > 100 µM (inactive)
SF-268
  GI50: > 100 µM (inactive)
SN12C
  GI50: > 100 µM (inactive)
HL-60
  GI50: 22.1 µM (inactive)
SNB-19
  GI50: > 100 µM (inactive)
IGROV-1
  GI50: > 100 µM (inactive)
OVCAR-3
  GI50: > 100 µM (inactive)
DMS-114
  GI50: 58.2 µM (inactive)
786-0
  GI50: > 100 µM (inactive)
SK-MEL-28
  GI50: > 100 µM (inactive)
COLO 205
  GI50: > 100 µM (inactive)
HCT-116
  GI50: > 100 µM (inactive)
SF-295
  GI50: > 100 µM (inactive)
DMS-273
  GI50: > 100 µM (inactive)
M14
  GI50: > 100 µM (inactive)
UO-31
  GI50: > 100 µM (inactive)
SK-MEL-2
  GI50: > 100 µM (inactive)
SNB-75
  GI50: > 100 µM (inactive)
OVCAR-8
  GI50: > 100 µM (inactive)
HCT-15
  GI50: > 100 µM
SR
  GI50: > 100 µM (inactive)
KM-20L2
  GI50: > 100 µM (inactive)
HOP-62
  GI50: > 100 µM (inactive)

## COc1cc(/C=C(\NC(=O)c2ccccc2)c2nc3cc([N+](=O)[O-])ccc3[nH]2)cc(OC)c1OC
OVCAR-5
  GI50: > 100 µM (inactive)
RXF 393
  GI50: > 100 µM (inactive)
KM12
  GI50: 84.5 µM (inactive)
SK-OV-3
  GI50: 78.3 µM (inactive)
DLD-1
  GI50: 57.3 µM (inactive)
SW-620
  GI50: 76.7 µM (inactive)
M19-MEL
  GI50: > 100 µM (inactive)
NCI-H522
  GI50: 30.2 µM (inactive)
CAKI-1
  GI50: 68.5 µM (inactive)
HT-29
  GI50: > 100 µM (inactive)
U-251
  GI50: > 100 µM (inactive)
SNB-78
  GI50: > 100 µM (inactive)
LXFL 529
  GI50: 35.4 µM (inactive)
MOLT-4
  GI50: 29 µM (inactive)
HOP-92
  GI50: 57 µM (inactive)
NCI-H23
  GI50: > 100 µM (inactive)
TK-10
  GI50: > 100 µM (inactive)
K562
  GI50: 34.3 µM (inactive)
SK-MEL-5
  GI50: 96.6 µM (inactive)
CCRF-CEM
  GI50: 35.9 µM (inactive)
OVCAR-4
  GI50: 38.5 µM (inactive)
UACC-62
  GI50: > 100 µM (inactive)
Malme-3M
  GI50: > 100 µM (inactive)
SN12C
  GI50: > 100 µM (inactive)
SNB-19
  GI50: > 100 µM (inactive)
XF498
  GI50: > 100 µM (inactive)
IGROV-1
  GI50: > 100 µM (inactive)
OVCAR-3
  GI50: > 100 µM (inactive)
DMS-114
  GI50: 57.9 µM (inactive)
SK-MEL-28
  GI50: > 100 µM (inactive)
COLO 205
  GI50: > 100 µM (inactive)
HCC 2998
  GI50: > 100 µM (inactive)
SF-295
  GI50: > 100 µM (inactive)
M14
  GI50: > 100 µM (inactive)
UO-31
  GI50: 23.1 µM (inactive)
SK-MEL-2
  GI50: > 100 µM (inactive)
OVCAR-8
  GI50: 96.4 µM (inactive)
HCT-15
  GI50: 40 µM
SR
  GI50: 42.2 µM (inactive)
KM-20L2
  GI50: 78.7 µM (inactive)

Source: ChEMBL document CHEMBL1201862, “PubChem BioAssay data set” (2004)
